From ChEMBL document CHEMBL1146925 (Bioorg Med Chem Lett, 2006)

What was measured:
[1] = biological target: D(2) dopamine receptor (Homo sapiens, UniProt P14416); assay: Binding affinity to cloned human dopamine D2 receptor
[2] = biological target: D(3) dopamine receptor (Homo sapiens, UniProt P35462); assay: Binding affinity to cloned human dopamine D3 receptor
[3] = Oral bioavailability in rat at 2 mg/kg, iv and 10 mg/kg, po; format: ADME, organism-based; conditions: in vivo
[4] = tested on: Liver microsomes; assay: Metabolic stability in rat liver microsomes; format: ADME, Microsome
[5] = species: Canis familiaris; assay: Metabolic stability in dog liver microsomes; format: ADME, Canis lupus familiaris
[6] = Permeability across Caco-2 cell membrane at pH 7.2; format: ADME, cell-based; conditions: human, Caco-2, pH 7.2; read-out: permeability
[7] = Brain to plasma ratio in rat at 2 mg/kg, iv and 10 mg/kg, po
[8] = tested on: Liver microsomes; assay: Metabolic stability in human liver microsomes; format: ADME, Microsome

Sequence of D(3) dopamine receptor (P35462 whole entry): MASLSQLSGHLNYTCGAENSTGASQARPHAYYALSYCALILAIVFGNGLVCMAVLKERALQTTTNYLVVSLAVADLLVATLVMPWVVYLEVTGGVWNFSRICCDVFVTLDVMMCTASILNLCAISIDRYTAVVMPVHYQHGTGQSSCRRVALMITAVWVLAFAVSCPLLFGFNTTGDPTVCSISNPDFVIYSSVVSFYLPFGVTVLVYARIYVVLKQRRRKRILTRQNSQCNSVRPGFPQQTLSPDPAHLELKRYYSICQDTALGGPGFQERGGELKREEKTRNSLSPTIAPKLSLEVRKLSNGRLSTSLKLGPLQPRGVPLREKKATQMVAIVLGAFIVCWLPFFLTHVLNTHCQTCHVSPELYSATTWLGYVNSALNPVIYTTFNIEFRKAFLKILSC
Sequence of D(2) dopamine receptor (P14416 whole entry): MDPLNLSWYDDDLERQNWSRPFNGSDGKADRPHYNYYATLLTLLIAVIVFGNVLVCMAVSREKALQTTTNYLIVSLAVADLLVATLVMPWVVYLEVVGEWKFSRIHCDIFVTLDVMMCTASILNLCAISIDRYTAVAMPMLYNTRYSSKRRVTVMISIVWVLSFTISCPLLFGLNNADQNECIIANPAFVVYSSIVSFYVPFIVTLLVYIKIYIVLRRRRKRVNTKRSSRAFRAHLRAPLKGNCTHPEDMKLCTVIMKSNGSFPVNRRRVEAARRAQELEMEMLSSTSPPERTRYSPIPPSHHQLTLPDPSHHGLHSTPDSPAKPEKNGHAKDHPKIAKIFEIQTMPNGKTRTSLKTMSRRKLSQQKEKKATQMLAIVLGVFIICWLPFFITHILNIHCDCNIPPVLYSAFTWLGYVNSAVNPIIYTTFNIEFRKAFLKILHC

| Ki [1] | Ki [2] | Compound | also measured |
| --- | --- | --- | --- |
| 25.5 nM | 1.1 nM | CC(C)(C)c1nc(N2CCN(CCCCn3ccc(O)cc3=O)CC2)cc(C(F)(F)F)n1 | – |
| 17.3 nM | 0.9 nM | CCN(CC)C(=O)NCCCCN1CCN(c2cc(C(F)(F)F)nc(C(C)(C)C)n2)CC1 | – |
| 171 nM | – | Cc1cccn(CCCCN2CCN(c3cc(C(F)(F)F)nc(C(C)(C)C)n3)CC2)c1=O | – |
| 195 nM | 12.1 nM | Cc1cccc(=O)n1CCCCN1CCN(c2cc(C(F)(F)F)nc(C(C)(C)C)n2)CC1 | – |
| 128 nM | 32.2 nM | CC(C)(C)c1nc(N2CCN(CCCCn3cc(Cl)ccc3=O)CC2)cc(C(F)(F)F)n1 | – |
| 65.8 nM | 4 nM | CC(C)(C)NC(=O)NCCCCN1CCN(c2cc(C(F)(F)F)nc(C(C)(C)C)n2)CC1 | – |
| 399 nM | 35.7 nM | CC(C)(C)c1nc(N2CCN(CCCCn3cc(C(F)(F)F)ccc3=O)CC2)cc(C(F)(F)F)n1 | – |
| 231 nM | 11.4 nM | CC(C)(C)c1nc(N2CCN(CCCCn3ccc(C(F)(F)F)cc3=O)CC2)cc(C(F)(F)F)n1 | – |
| 936 nM | – | CC(C)(C)c1nc(N2CCN(CCCCn3ccc(C(F)(F)F)nc3=O)CC2)cc(C(F)(F)F)n1 | – |
| 409 nM | 9.3 nM | CC(C)(C)c1nc(N2CCN(CCCCn3cccc(C(F)(F)F)c3=O)CC2)cc(C(F)(F)F)n1 | – |
| 527 nM | – | CC(C)(C)c1nc(N2CCN(CCCCn3ccc(-c4ccccc4)cc3=O)CC2)cc(C(F)(F)F)n1 | – |
| 212 nM | 8.3 nM | CCN(Cc1ccccc1)C(=O)NCCCCN1CCN(c2cc(C(F)(F)F)nc(C(C)(C)C)n2)CC1 | – |
| 234 nM | 7.2 nM | CC(C)(C)c1nc(N2CCN(CCCCNC(=O)NCCc3ccccc3)CC2)cc(C(F)(F)F)n1 | – |
| 168 nM | – | COc1cccn(CCCCN2CCN(c3cc(C(F)(F)F)nc(C(C)(C)C)n3)CC2)c1=O | – |
| 91.3 nM | 5.5 nM | CC(C)(C)CNC(=O)NCCCCN1CCN(c2cc(C(F)(F)F)nc(C(C)(C)C)n2)CC1 | – |

| Compound | Ki [1] | Ki [2] | also measured |
| --- | --- | --- | --- |
| CC(C)(C)c1nc(N2CCN(CCCCNC(=O)NCC3CCCCC3)CC2)cc(C(F)(F)F)n1 | 159 nM | 6.7 nM | – |
| CC(C)(C)c1nc(N2CCN(CCCCNC(=O)Nc3ccccc3)CC2)cc(C(F)(F)F)n1 | 59.1 nM | 3.2 nM | – |
| CC(C)(C)c1nc(N2CCN(CCCCNC(=O)CCc3ccccc3)CC2)cc(C(F)(F)F)n1 | 244 nM | 1.6 nM | bioavailability [3]: < 10% |
| Cc1ccn(CCCCN2CCN(c3cc(C(F)(F)F)nc(C(C)(C)C)n3)CC2)c(=O)c1 | 62.6 nM | – | bioavailability [3]: 37%; Stability [4]: 74%; Stability [5]: 59%; Papp [6]: 5 ×10⁻⁶ cm/s; Kp [7]: 3.7; Stability [8]: > 97% |
| CC(C)(C)c1nc(N2CCN(CCCCNC(=O)NCc3ccccc3)CC2)cc(C(F)(F)F)n1 | 137 nM | 2.7 nM | – |
| CC(C)(C)c1nc(N2CCN(CCCCCC(=O)NCc3ccccc3)CC2)cc(C(F)(F)F)n1 | 174 nM | 6.2 nM | – |
